In the data set the test system is CCRIS mutagenicity, Ames/micronucleus/aberration tests. Description: CCRIS mutagenicity studies.
The mark [1] stands for this setting: Test System: AMES SALMONELLA TYPHIMURIUM, Strain/Indicator: TA97, Metabolic Activation: NONE, Method: STANDARD PLATE.
Where [2] appears, read: Test System: AMES SALMONELLA TYPHIMURIUM, Strain/Indicator: TA98, Metabolic Activation: NONE, Method: STANDARD PLATE.
Setting [3] is: Test System: AMES SALMONELLA TYPHIMURIUM, Strain/Indicator: TA100, Metabolic Activation: NONE, Method: STANDARD PLATE.
[4] abbreviates: Test System: AMES SALMONELLA TYPHIMURIUM, Strain/Indicator: TA102, Metabolic Activation: NONE, Method: STANDARD PLATE.
Where [5] appears, read: Test System: AMES SALMONELLA TYPHIMURIUM, Strain/Indicator: TA102, Metabolic Activation: RAT, LIVER, S-9, AROCLOR 1254, Method: STANDARD PLATE.
[6] abbreviates: Test System: AMES SALMONELLA TYPHIMURIUM, Strain/Indicator: TA1535, Metabolic Activation: NONE, Method: STANDARD PLATE.
Setting [7] is: Test System: AMES SALMONELLA TYPHIMURIUM, Strain/Indicator: TA1537, Metabolic Activation: NONE, Method: STANDARD PLATE.

Structures are written as SMILES. The source made the active and inactive calls. The rule behind the calls is not given here.

As to `Nc1n[nH]c(N)n1`, the mutagenic call was “inactive; negative” under setting [1]; “inactive; negative” (Test System: AMES SALMONELLA TYPHIMURIUM, Strain/Indicator: TA97, Metabolic Activation: RAT, LIVER, S-9, AROCLOR, Method: STANDARD PLATE); “inactive; negative” (Test System: AMES SALMONELLA TYPHIMURIUM, Strain/Indicator: TA98, Metabolic Activation: HAMSTER, LIVER, S-9, AROCLOR 1254 (10%), Method: PREINCUBATION); “inactive; negative” (Test System: AMES SALMONELLA TYPHIMURIUM, Strain/Indicator: TA98, Metabolic Activation: NONE, Method: PREINCUBATION); “inactive; negative” under setting [2]; “inactive; negative” (Test System: AMES SALMONELLA TYPHIMURIUM, Strain/Indicator: TA98, Metabolic Activation: RAT, LIVER, S-9, AROCLOR 1254 (10%), Method: PREINCUBATION). Further, the mutagenic call (Test System: AMES SALMONELLA TYPHIMURIUM, Strain/Indicator: TA98, Metabolic Activation: RAT, LIVER, S-9, AROCLOR, Method: STANDARD PLATE) was “inactive; negative”; the mutagenic call (Test System: AMES SALMONELLA TYPHIMURIUM, Strain/Indicator: TA100, Metabolic Activation: HAMSTER, LIVER, S-9, AROCLOR 1254 (10%), Method: PREINCUBATION) was “inactive; negative”; the mutagenic call (Test System: AMES SALMONELLA TYPHIMURIUM, Strain/Indicator: TA100, Metabolic Activation: NONE, Method: PREINCUBATION) is “inactive; negative”; the mutagenic call under setting [3] was “inactive; negative”; the mutagenic call (Test System: AMES SALMONELLA TYPHIMURIUM, Strain/Indicator: TA100, Metabolic Activation: RAT, LIVER, S-9, AROCLOR 1254 (10%), Method: PREINCUBATION) is “inactive; negative”; the mutagenic call (Test System: AMES SALMONELLA TYPHIMURIUM, Strain/Indicator: TA100, Metabolic Activation: RAT, LIVER, S-9, AROCLOR, Method: STANDARD PLATE) was “inactive; negative”. Besides, the mutagenic call under setting [4] was “active; positive”; the mutagenic call under setting [5] is “active; positive”; the mutagenic call (Test System: AMES SALMONELLA TYPHIMURIUM, Strain/Indicator: TA1535, Metabolic Activation: HAMSTER, LIVER, S-9, AROCLOR 1254 (10%), Method: PREINCUBATION) was “inactive; negative”; the mutagenic call (Test System: AMES SALMONELLA TYPHIMURIUM, Strain/Indicator: TA1535, Metabolic Activation: NONE, Method: PREINCUBATION) is “inactive; negative”; the mutagenic call under setting [6] was “inactive; negative”; the mutagenic call (Test System: AMES SALMONELLA TYPHIMURIUM, Strain/Indicator: TA1535, Metabolic Activation: RAT, LIVER, S-9, AROCLOR 1254 (10%), Method: PREINCUBATION) is “inactive; negative”. Also, the mutagenic call (Test System: AMES SALMONELLA TYPHIMURIUM, Strain/Indicator: TA1535, Metabolic Activation: RAT, LIVER, S-9, AROCLOR, Method: STANDARD PLATE) was “inactive; negative”; the mutagenic call (Test System: AMES SALMONELLA TYPHIMURIUM, Strain/Indicator: TA1537, Metabolic Activation: HAMSTER, LIVER, S-9, AROCLOR 1254 (10%), Method: PREINCUBATION) was “inactive; negative”; the mutagenic call (Test System: AMES SALMONELLA TYPHIMURIUM, Strain/Indicator: TA1537, Metabolic Activation: NONE, Method: PREINCUBATION) is “inactive; negative”; the mutagenic call (Test System: AMES SALMONELLA TYPHIMURIUM, Strain/Indicator: TA1537, Metabolic Activation: RAT, LIVER, S-9, AROCLOR 1254 (10%), Method: PREINCUBATION) was “inactive; negative”; the mutagenic call (Test System: UDS RODENT HEPATOCYTES, Strain/Indicator: THY INCORP (NON-S-PHASE), Metabolic Activation: NONE, Method: AUTORADIOGRAPHY) was “inactive; negative”.
Take `CN(C)C(=O)c1nc(CNC(=O)CN)n(-c2ccc(Cl)cc2C(=O)c2ccccc2Cl)n1`: the mutagenic call is “inactive; negative” under setting [2]; “inactive; negative” (Test System: AMES SALMONELLA TYPHIMURIUM, Strain/Indicator: TA98, Metabolic Activation: RAT, LIVER, S-9, AROCLOR 1254, Method: STANDARD PLATE); “inactive; negative” under setting [3]; “inactive; negative” (Test System: AMES SALMONELLA TYPHIMURIUM, Strain/Indicator: TA100, Metabolic Activation: RAT, LIVER, S-9, AROCLOR 1254, Method: STANDARD PLATE); “inactive; negative” under setting [4]; “inactive; negative” under setting [5]. Moreover, the mutagenic call is, setting by setting: under setting [6], “inactive; negative”; (Test System: AMES SALMONELLA TYPHIMURIUM, Strain/Indicator: TA1535, Metabolic Activation: RAT, LIVER, S-9, AROCLOR 1254, Method: STANDARD PLATE) “inactive; negative”; under setting [7], “inactive; negative”; (Test System: AMES SALMONELLA TYPHIMURIUM, Strain/Indicator: TA1537, Metabolic Activation: RAT, LIVER, S-9, AROCLOR 1254, Method: STANDARD PLATE) “inactive; negative”; (Test System: E. COLI, Strain/Indicator: WP2 UVRA, Metabolic Activation: NONE, Method: STANDARD PLATE) “inactive; negative”; (Test System: E. COLI, Strain/Indicator: WP2 UVRA, Metabolic Activation: RAT, LIVER, S-9, AROCLOR 1254, Method: STANDARD PLATE) “inactive; negative”.
`O=[N+]([O-])c1cc2[nH]c3ccc4ccccc4c3c2c2ccccc12`: the mutagenic call is, setting by setting: under setting [2], “inactive; negative”; (Test System: AMES SALMONELLA TYPHIMURIUM, Strain/Indicator: TA98, Metabolic Activation: RAT, LIVER, S-9, 3-METHYLCHOLANTHRENE, Method: STANDARD PLATE) “active; positive”; under setting [3], “inactive; negative”; (Test System: AMES SALMONELLA TYPHIMURIUM, Strain/Indicator: TA100, Metabolic Activation: RAT, LIVER, S-9, 3-METHYLCHOLANTHRENE, Method: STANDARD PLATE) “inactive; negative”.
With `CCN(C)C(=O)Oc1ccc2c(c1)C1(C)CCN(C)C1N2C` (stereo not drawn), the mutagenic call is “inactive; negative” under setting [1]; “inactive; negative” (Test System: AMES SALMONELLA TYPHIMURIUM, Strain/Indicator: TA97, Metabolic Activation: S-9, Method: STANDARD PLATE); “inactive; negative” under setting [2]; “inactive; negative” (Test System: AMES SALMONELLA TYPHIMURIUM, Strain/Indicator: TA98, Metabolic Activation: S-9, Method: STANDARD PLATE); “inactive; negative” under setting [3]; “inactive; negative” (Test System: AMES SALMONELLA TYPHIMURIUM, Strain/Indicator: TA100, Metabolic Activation: S-9, Method: STANDARD PLATE). Besides, the mutagenic call was “inactive; negative” (Test System: AMES SALMONELLA TYPHIMURIUM, Strain/Indicator: TA104, Metabolic Activation: NONE, Method: STANDARD PLATE); “inactive; negative” (Test System: AMES SALMONELLA TYPHIMURIUM, Strain/Indicator: TA104, Metabolic Activation: S-9, Method: STANDARD PLATE); “inactive; negative” under setting [6]; “inactive; negative” (Test System: AMES SALMONELLA TYPHIMURIUM, Strain/Indicator: TA1535, Metabolic Activation: S-9, Method: STANDARD PLATE); “inactive; negative” under setting [7]; “inactive; negative” (Test System: AMES SALMONELLA TYPHIMURIUM, Strain/Indicator: TA1537, Metabolic Activation: S-9, Method: STANDARD PLATE). Also, the mutagenic call reads like this: (Test System: AMES SALMONELLA TYPHIMURIUM, Strain/Indicator: TA1538, Metabolic Activation: NONE, Method: STANDARD PLATE) “inactive; negative”; (Test System: AMES SALMONELLA TYPHIMURIUM, Strain/Indicator: TA1538, Metabolic Activation: S-9, Method: STANDARD PLATE) “inactive; negative”.

Values taken from PubChem BioAssay AID1259407 (Chemical Carcinogenesis Research Information System (CCRIS), 2018).
